Results published in US20230141284A1, “CANCER THERAPEUTIC METHOD” (ONO PHARMACEUTICAL CO., LTD., priority 2020, published 2023).
Where a name gives a salt, the structure may show the parent alone. Values belong to the molecule of their own block, whether it stands above or below them.

Columns and labels:
[1] = tested on: IRF pathway; test: Verification of STING agonistic activity (IRF pathway in cells of PCT/EP2017/59781); assay type: cell-based; conditions: cells described in PCT/EP2017/59781, about 24 hours incubation
Protocol: The cells described at lines 37-39 on page 18 in the publication of PCT application with application number PCT/EP2017/59781 were suspended in RPMI medium to prepare 2×10^6 cells/mL cell suspension. 50 μL of cell suspensions were dispensed into a 96-well plate, to which 50 μL of 6 to 20,000 nM compound solutions were further added, followed by incubation at 37° C. for about 24 hours. 10 μL of the cell suspensions were collected from each well, which were mixed with 50 μL of Quanti-luc (Invivogen), and then the activity of the IRF pathway was measured by detecting luminescence using a microplate reader.

[2] = target: T1, IDO1 (Homo sapiens, UniProt P14902); test: IDO1 inhibitory activity (IDO1 Fluorogenic Inhibitor Screening Assay Kit); assay type: biochemical; conditions: compound solutions of 0.6 to 200 μmol/L added
T1 construct: His-tag; purchased BPS Bioscience
Protocol: The evaluation of IDO1 inhibitory activity was carried out using the IDO1 Fluorogenic Inhibitor Screening Assay Kit (BPS Bioscience). Specifically, IDO1 Fluorogenic Reaction Solution was dissolved, of which 180 μL were added to each well. Then, 10 μL of the compounds at the respective concentrations of 0.6, 2, 6, 20, 60 and 200 μmol/L were added thereto. Further, after adding 10 μL of IDO1 His-Tag solution thereto, and the mixture thereof was incubated at room temperature for 1 hour, and then 20 μL of Fluorescence Solution was added thereto, and the mixture thereof was incubated at 37° C. for 4 hours. After standing them at room temperature for 10 minutes, the fluorescence was measured using a microplate reader (excitation: 400 nm, emission: 510 nm).

[3] = tested on: BTK, KDR, each subtype of PKCa to t, each CDK of CDK2 to 9, FAK, TIE2, RAF1 and BRAF; test: Inhibitory activity against various kinases (mobility shift, LabChip); assay type: biochemical; conditions: 4 μmol/L test substance solution (4 times the final concentration)
Protocol: 4 μmol/L of the test substance solution (the compound pertaining to the present invention produced in Example 1) (at 4 times the final concentration) was prepared by dissolving it to the assay buffer (20 mmol/L HEPES, 0.01% Triton X-100, 1 mmol/L DTT, pH 7.5). 4 μmol/L of the substrate/ATP/metal solution (at 4 times the final concentration) was prepared by dissolving it to the kit buffer (20 mmol/L HEPES, 0.01% Triton X-100, 5 mmol/L DTT, pH 7.5). Various kinase solutions at twice the final concentration were prepared by dissolving them to the assay buffer. 5 μL of the test substance solution, 5 μL of the substrate/ATP/metal solution and 10 μL of the kinase solution were mixed in wells of a polypropylene 384-well plate, and the mixture thereof was reacted at room temperature for 1 to 5 hours. The reaction was stopped by adding 70 μL of the termination buffer (QuickScout Screening Assist MSA; Carna Biosciences). The substrate peptide and phosphorylated peptide in the reaction solution were separated and quantified by LabChip system (Perkin Elmer). The kinase reaction was evaluated based on the product ratio (P/(P+S)) calculated from the peak height (S) of the substrate peptide and the peak height (P) of the phosphorylated peptide. The various kinases used in this evaluation are as follows: BTK, KDR, each subtype of PKCa to t, each CDK of CDK2 to 9, FAK, TIE2, RAF1 and BRAF.

[4] = tested on: colon cancer cell line MC38; test: Anti-tumor effect in subcutaneously colon cancer cell line MC38 tumor-bearing mouse model (Example 17); assay type: in vivo, mice (C57/BL6); conditions: 3 mg/kg, administered 7 days after transplantation, measured until Day 26
Protocol: Seven days after transplantation, the subcutaneously MC38 tumor-bearing mice were grouped based on tumor volume, and the Vehicle group (n=8) and group to which the compound shown in Example 1 (3 mg/kg, n=6) was administered were set. The changes in tumor volume were continuously measured until 26 days after transplantation (Day 26). The tumor volume was calculated by the following formula:
[Tumor volume (mm^3)]=[major axis (mm)]×[minor axis (mm)]^2×0.5

[5] = tested on: IRF (Interferon Regulatory Factor) pathway; test: Effect on IRF (Interferon Regulatory Factor) pathway, Quanti-luc reporter cells; assay type: cell-based; conditions: activation of the IRF pathway, luminescence, about 24 hours incubation
Protocol: The cells mainly described at lines 12-20 of the right column on page 183 in Mol Immunol. 2017, Vol. 90, p. 182-189 were suspended in RPMI medium to prepare 2×10^6 cells/mL of cell suspension. 50 μL of the cell suspensions were dispensed into a 96-well plate, to which 50 μL of 6 to 20,000 nmol/L compound solutions were added. After adding the compound, the mixture thereof was incubated at 37° C. for about 24 hours. After incubation, 10 μL of cell suspensions were collected from each well, which were mixed with 50 μL of Quanti-luc (Invivogen). Then, the activation of the IRF pathway was measured by detecting luminescence using a microplate reader (Molecular Devices).

[6] = Conversion of a prodrug to its active body (Compound B) in mouse plasma; assay type: in vitro ADME; conditions: 1 μmol/L, 37° C., 60 minutes
Protocol: (§1) The solutions of the example compounds in Table 2 below (50 μmol/L, 50% acetonitrile with 5% DMSO) were added to plasma (245 μL), respectively, such that the final concentrations thereof become 1 μmol/L. After keeping them the temperature at 37° C. for 60 minutes, 40 μL of the reaction solutions were taken therefrom, and added to 200 μL of acetonitrile/ethanol (7:3) containing Candesartan (internal standard).
(§2) The concentration of the compound prepared in Example 3 (Compound B) in the plasma resulting from the above reaction was analyzed by LC-MS/MS according to the following method.
(§3) The whole amount was transferred to a filter plate for protein removal and filtered by suction, and the filtrate thereof was diluted 2-fold with water. [LC column] Shim-pack XR-ODSII 2.0 mm ID×75 mm (Shimadzu Corporation) [LC condition] Column temperature: 40° C. Mobile phase: A: 0.2% formic acid in 5 mM ammonium acetate solution; and
(§4) [MS conditions] Electrospray, positive mode, multiple reaction monitoring; MS monitor ion: Compound B: m/z353.0→m/z311.2, DP: 80, CE: 35; and Candesartan (internal standard): m/z309.1→m/z163.0, DP: 71, CE: 21.
(§5) A regression formula was calculated from the peak area ratio (peak area of Compound B/peak area of Candesartan) of the real sample and the standard sample for the calibration curve in the same matrix, and the peak area ratio of the real sample was substituted into the regression formula to calculate the quantitative value. 60 minutes later, the concentration of Compound B in the sample was compared, and the conversion rate (%) thereof was calculated using the following formula:
(§6) Conversion rate (%)=Concentration of Compound B in the sample after 60 minutes (μmol/L)×100

[7] = Conversion of a prodrug to its active body (Compound B) in human plasma; assay type: in vitro ADME; conditions: 1 μmol/L, 37° C., 60 minutes
Protocol: as §1, §2, §3, §4, §5, §6

T1 sequence (P14902 whole entry): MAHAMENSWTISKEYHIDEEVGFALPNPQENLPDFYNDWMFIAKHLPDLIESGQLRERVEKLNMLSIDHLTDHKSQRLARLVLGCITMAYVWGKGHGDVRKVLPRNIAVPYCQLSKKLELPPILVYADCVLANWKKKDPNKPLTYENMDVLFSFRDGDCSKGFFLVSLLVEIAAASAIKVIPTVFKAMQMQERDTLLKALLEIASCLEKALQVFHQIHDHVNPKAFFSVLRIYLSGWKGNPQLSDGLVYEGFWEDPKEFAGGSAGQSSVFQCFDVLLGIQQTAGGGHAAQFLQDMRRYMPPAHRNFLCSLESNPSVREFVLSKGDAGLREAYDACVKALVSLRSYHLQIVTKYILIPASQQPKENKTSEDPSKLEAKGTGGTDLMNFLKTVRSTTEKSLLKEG

IDO1 inhibitory activity [2]: no IDO1 inhibitory activity
Compound: COC(=O)c1cc(-c2ncc(-c3cn[nH]c3)c3onc(N)c23)c(F)cc1N [Example 1, methyl 2-amino-5-(3-amino-7-(1H-pyrazol-4-yl)isoxazolo[4,5-c]pyridin-4-yl)-4-fluorobenzoate]
IRF activating effect [1]: no IRF activating effect
inhibitory activity against various kinases [3]: no significantly inhibit activities
tumor growth (tumor volume) [4]: almost completely suppressed the tumor growth

EC50 [5]: 80 nM
Compound: NC(=O)c1cc(-c2ncc(-c3cn[nH]c3)c3onc(N)c23)c(F)cc1N [Example 4(5), 2-amino-5-(3-amino-7-(1H-pyrazol-4-yl)isoxazolo[4,5-c]pyridin-4-yl)-4-fluorobenzamide hydrochloride]

EC50 [5]: 40 nM
Compound: CCOC(=O)c1cc(-c2ncc(-c3cn[nH]c3)c3onc(N)c23)c(F)cc1N [Example 4(6), ethyl 2-amino-5-(3-amino-7-(1H-pyrazol-4-yl)isoxazolo[4,5-c]pyridin-4-yl)-4-fluorobenzoate hydrochloride]

EC50 [5]: 20 nM
Compound: CCC(=O)c1cc(-c2ncc(-c3cn[nH]c3)c3onc(N)c23)c(F)cc1N [Example 4(7), 1-(2-amino-5-(3-amino-7-(1H-pyrazol-4-yl)isoxazolo[4,5-c]pyridin-4-yl)-4-fluorophenyl)propan-1-one hydrochloride]

EC50 [5]: 20 nM
Compound: CCNC(=O)c1cc(-c2ncc(-c3cn[nH]c3)c3onc(N)c23)c(F)cc1N [Example 4(8), 2-amino-5-(3-amino-7-(1H-pyrazol-4-yl)isoxazolo[4,5-c]pyridin-4-yl)-N-ethyl-4-fluorobenzamide hydrochloride]

EC50 [5]: 100 nM
Compound: CNC(=O)c1cc(-c2ncc(-c3cn[nH]c3)c3onc(N)c23)ccc1N [Example 4(15), 2-amino-5-(3-amino-7-(1H-pyrazol-4-yl)isoxazolo[4,5-c]pyridin-4-yl)-N-methylbenzamide hydrochloride]

EC50 [5]: 1000 nM
Compound: CSc1cc(-c2ncc(-c3cn[nH]c3)c3onc(N)c23)c(Cl)cc1N [Example 4(16), 4-(4-amino-2-chloro-5-(methylthio)phenyl)-7-(1H-pyrazol-4-yl)isoxazolo[4,5-c]pyridin-3-amine hydrochloride]

EC50 [5]: 90 nM
Compound: CSc1cc(-c2ncc(-c3cn[nH]c3)c3onc(N)c23)c(F)cc1N [Example 4, 4-(4-amino-2-fluoro-5-(methylthio)phenyl)-7-(1H-pyrazol-4-yl)isoxazolo[4,5-c]pyridin-3-amine hydrochloride]

Compound: CC(=O)c1cc(-c2ncc(-c3cnn(COP(=O)(O)OCOC(=O)OC(C)C)c3)c3onc(N)c23)c(F)cc1N [Example 12(11), ((((4-(4-(5-acetyl-4-amino-2-fluorophenyl)-3-aminoisoxazolo[4,5-c]pyridin-7-yl)-1H-pyrazol-1-yl)methoxy)(hydroxy)phosphoryl)oxy)methyl isopropyl carbonate]
Plasma conversion rate Mouse [6]: + (the conversion rate of each example compound in the table to Compound B is less than 25%)
Plasma conversion rate Human [7]: + (the conversion rate of each example compound in the table to Compound B is less than 25%)

Compound: CC(=O)c1cc(-c2ncc(-c3cnn(COC(=O)N4CCC(N5CCCCC5)CC4)c3)c3onc(N)c23)c(F)cc1N [Example 12, (4-(4-(5-acetyl-4-amino-2-fluorophenyl)-3-aminoisoxazolo[4,5-c]pyridin-7-yl)-1H-pyrazol-1-yl)methyl [1,4′-bipiperidine]-1′-carboxylate]
Plasma conversion rate Mouse [6]: + (the conversion rate of each example compound in the table to Compound B is less than 25%)
Plasma conversion rate Human [7]: + (the conversion rate of each example compound in the table to Compound B is less than 25%)
